# Read-outs that look alike come from different tables or passages of the source.
# Experiments:
# SAE1 = SAE1 (Homo sapiens (Human), UniProt Q9UBE0+Q9UBT2); experiment: SAE High Throughput Biochemical Assay (HTRF), 15 min preincubation; details: read-out: 15 min preincubation HTRF IC50 (μM) Ave, SAE1 12.5 nM, ATP 100 μM
# In short: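 HTRF detection of SUMO transfer from SUMO-GST to UBC9-His (40 nM each) by SAE1 at 12.5 nM used 100 μM ATP in pH 7.5 HEPES buffer with 10 mM MgCl2 and 0.1% BSA. Enzyme and compound were preincubated 15 min at RT and the reaction ran 45 min, with readings after 2 h and overnight.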
# [1] = Plasma protein binding, equilibrium dialysis, mouse plasma; format: in vitro ADME; details: 5 hours at 37° C., read-out: PPB % bound Mouse (converted)
# Procedure: (§1) The compounds of interest were evaluated for various PK parameters. Specifically CACO permeability/efflux and plasma protein binding (PPP) were determined. Stock solutions were prepared at 10 mM in DMSO for test and reference compounds. Aliquots of the stock solution were diluted to 500× of final concentration (0.5 mM) with DMSO, then further diluted upon the addition of bank PE3-buffer to 20× of final concentration (20 μM). Then test and reference compounds were prepared in plasma at 1 μM. For 0 hour incubation: 25 μL of the plasma spiked with test and reference compounds was transferred into a 96-well sample preparation plate, and then 25 μL blank PB-buffer was added. The samples were quenched by 200 μL of IS solution to prepare [Initial]0h samples. For 5 hours incubation: 100 μL of the plasma spiking with test and reference compounds was loaded on donor side, and 100 μL of blank PB-buffer were loaded on receiver side of the equilibrium dialysis device. Samples were incubated in an air-bath shaker (60 rpm) for 5 hours at 37° C. After 5 hours incubation, 25 μL of samples (from both the donor sides and receiver sides of the dialysis apparatus) was aspirated and added into new sample preparation plates, separately. 25 μL of blank PB-buffer was added to donor side samples and 25 μL of blank plasma was added to receiver side samples to balance the matrix. The samples were quenched with 200 μL of IS solution. The assay plate was shaken at the vibrator (Hangzhou Allsheng, MX100-4A) for 10 min (600 rpm) and then centrifuged at 5,594×g for 15 min (Thermo Multifuge×3R). An aliquot of the 50 μL supernatant was taken from each well and diluted by 50 μL distilled water, then analyzed by UPLC-MS/MS.
# [2] = Plasma protein binding, equilibrium dialysis, rat plasma; format: in vitro ADME; details: 5 hours at 37° C., read-out: PPB % bound Rat (converted)
# Procedure: as §1
# [3] = Plasma protein binding, equilibrium dialysis, human plasma; format: in vitro ADME; details: 5 hours at 37° C., read-out: PPB % bound Human (converted)
# Procedure: as §1
# [4] = Plasma protein binding, equilibrium dialysis, dog plasma; format: in vitro ADME; details: 5 hours at 37° C., read-out: PPB % bound Dog (converted)
# Procedure: as §1
# [5] = Plasma protein binding, equilibrium dialysis, monkey plasma; format: in vitro ADME; details: 5 hours at 37° C., read-out: PPB % bound Monkey (converted)
# Procedure: as §1
# [6] = Caco-2 permeability/efflux; format: in vitro ADME; details: human, Caco-2, pH 7.4; B-A / A-B
# Procedure: (§2) Caco-2 cells were obtained from American Tissue Culture Collection (Rockville, MD). The cells were maintained in Modified Eagle's medium (MEM), containing 10% heat-inactivated fetal bovine serum (FBS), and 1% non-essential amino acids, in CO2 at 37° C. Cells were seeded on polycarbonate filter inserts (Millipore, CAT #PSHT 010 R5). The cells were cultured for 21-28 days prior to the permeability experiments. The Lucifer Yellow permeability was checked before and after the assay. Compounds were dissolved at 10 mM in 100% dimethyl sulfoxide (DMSO) and diluted for studies in Hanks Balanced Salt Solution (HBSS, Invitrogen, Cat #14025-092) with 25 mM HEPES, pH 7.4. Compounds were tested at 10 µM in both the apical-to-basolateral (A-B) and basolateral-to-apical (B-A) directions, incubations were conducted at 37° C. for 90 min. At the end of incubation, samples were diluted by assay buffer, and analyzed by LC-MS/MS. The concentrations of the compounds were quantified by standard curve. The first comparator example (Comp. Ex. 1) is the chloro substituted thienodihydropyridine
# Caco-2 cells = experiment: Caco-2 permeability/efflux; format: in vitro ADME; details: 10 uM, 37° C., 90 min, pH 7.4
# Procedure: as §2
# Solubility Evaluation = format: physicochemical; details: kinetic from dmso stock, 1 hour at RT
# Procedure: The compounds of interest were evaluated for their solubility in various biological solutions. Specifically, aliquots (8 μL) of reference and test compound stock solutions (10 mM) were added into 792 μL of buffer (PBS, pH7.4, FaSSIF, pH 6.5, or FaSSGF, pH 1.6) respectively (Final DMSO conc.: 1%). Sample tubes were shaken for 1 hour (1000 rpm) at RT. The experiment was calibrated using 300 μM spiked solution (SS) in MeOH/CAN (4:1) by adding 6 μL of 10 mM compound stock solution in 194 μL MeOH/ACN(4:1) ranging from 60 μM to 0.02 μM. The samples were centrifuged (10 min-12000 rpm) to precipitate un-dissolved particles. The supernatants were transferred to a new tube or plate. Supernatants were diluted 10 times and 100 times with 100 mM buffer then analyzed by LC-MS/MS. SGF=simulated gastric fluid, SIF=simulated intestinal fluid, PBS=phosphate buffered saline pH 7.4 Values are noted in μM.
# [7] = PBS (phosphate buffered saline), aqueous buffer, phosphate buffered saline pH 7.4, 1% DMSO, read-out: Solubilities PBS
# [8] = simulated intestinal fluid (FaSSIF, pH 6.5), 1% DMSO, read-out: Solubilities SIF
# SAE1, sequence (Q9UBE0 whole entry): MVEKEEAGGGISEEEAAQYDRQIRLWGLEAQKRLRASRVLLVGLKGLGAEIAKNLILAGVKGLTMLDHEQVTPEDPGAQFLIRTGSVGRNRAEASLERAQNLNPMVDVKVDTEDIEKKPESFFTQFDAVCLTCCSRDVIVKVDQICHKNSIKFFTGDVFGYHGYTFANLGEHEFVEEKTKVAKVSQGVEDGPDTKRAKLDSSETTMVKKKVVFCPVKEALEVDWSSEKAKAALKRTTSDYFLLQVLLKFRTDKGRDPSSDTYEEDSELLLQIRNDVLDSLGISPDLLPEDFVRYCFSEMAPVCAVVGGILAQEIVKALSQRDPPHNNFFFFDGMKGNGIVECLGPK
# SAE1, sequence (Q9UBT2 whole entry): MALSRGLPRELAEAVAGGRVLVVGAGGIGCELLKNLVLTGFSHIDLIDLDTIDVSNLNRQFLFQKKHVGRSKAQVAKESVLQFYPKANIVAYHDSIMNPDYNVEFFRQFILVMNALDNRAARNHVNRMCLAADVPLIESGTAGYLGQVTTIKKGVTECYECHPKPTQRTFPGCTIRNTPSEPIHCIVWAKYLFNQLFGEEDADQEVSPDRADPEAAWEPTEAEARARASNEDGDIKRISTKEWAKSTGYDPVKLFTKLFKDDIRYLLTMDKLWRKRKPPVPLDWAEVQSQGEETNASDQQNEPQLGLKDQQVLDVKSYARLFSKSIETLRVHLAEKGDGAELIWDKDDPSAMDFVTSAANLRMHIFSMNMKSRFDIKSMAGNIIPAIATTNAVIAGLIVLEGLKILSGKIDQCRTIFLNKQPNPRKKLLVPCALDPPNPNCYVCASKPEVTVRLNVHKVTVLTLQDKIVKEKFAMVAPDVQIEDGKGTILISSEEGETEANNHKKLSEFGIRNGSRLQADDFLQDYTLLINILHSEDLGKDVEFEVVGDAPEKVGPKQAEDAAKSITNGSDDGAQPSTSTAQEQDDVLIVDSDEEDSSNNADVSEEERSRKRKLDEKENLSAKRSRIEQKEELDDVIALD
"fraction unbound at 5 h, 1 μM [1]","fraction unbound at 5 h, 1 μM [2]","fraction unbound at 5 h, 1 μM [3]","fraction unbound at 5 h, 1 μM [4]","fraction unbound at 5 h, 1 μM [5]","efflux ratio at 90 min, 10 μM [6]",Caco-2 apparent permeability (Papp) (Caco-2 cells; apical-to-basolateral),Caco-2 apparent permeability (Papp) (Caco-2 cells; basolateral-to-apical),solubility at 1 h (Solubility Evaluation; [7]) [µM],solubility at 1 h (Solubility Evaluation; [8]) [µM],SMILES,IC50 (SAE1) [µM]
0.005,0.004,0.008,0.001,0.009,1,3.4 10^-6 cm/s,4.1 10^-6 cm/s,41,29,C=CC(=O)N1Cc2sc(C#N)c(C)c2[C@H](c2cccc(F)c2-c2cn(CC)nc2C(F)(F)F)C1 [Compound 222],0.1
0.013,0.021,0.028,0.008,0.047,1,12.7 10^-6 cm/s,11.6 10^-6 cm/s,97,> 100,"CCn1cc(-c2c(F)cccc2[C@@H]2CN(C(=O)/C=C/CN(C)C)Cc3sc(C#N)c(C)c32)c(C(F)(F)F)n1 [Example 46, (S, E)-6-(4-(dimethylamino)but-2-enoyl)-4-(2-(1-ethyl-3-(trifluoromethyl)-1 H-pyrazol-4-yl)-3-fluorophenyl)-3-methyl-4,5,6,7-tetrahydrothieno[2,3-c]pyridine-2-carbonitrile]",0.2
0.039,0.062,0.033,0.02,0.064,6,4 10^-6 cm/s,21 10^-6 cm/s,30,28,CCn1cc(-c2c(F)cccc2[C@@H]2CN(C(=O)/C=C/CNC)Cc3sc(C#N)cc32)c(C(F)(F)F)n1 [Example 50],0.51
